Measurements from US20240099298A1, “BIOINSECTICIDAL COMPOSITIONS CONTAINING MONOTERPENES AND METHODS OF USE THEREOF” (priority 2017, published 2024).
pKd: −log10 of the molar value. ≈ marks a conversion by molar mass, not a printed value.

Tests used:
[1] = test system: B. cucuribitae (melon fly); assay: Median lethal time (LT50) test, melon fly; type: in vivo, Bactrocera cucuribitae
Source text: (§1) All treatments and controls were in triplicate.
(§2) Toxicity of Monoterpenes as Fumigants. […] Therefore, to determine how fast the monoterpenes act as fumigants, it was necessary to determine their LT50 values for the target organisms.

[2] = test system: T. castaneum (red flour beetle); assay: Median lethal time (LT50) test, red flour beetle; type: in vivo, Tribolium castaneum
Source text: as §1, §2

adult T. palmi = conditions: cited from earlier work
Thrips, M. usitatus = assay: Headspace fumigation toxicity of linalool mixed in peanut oil; type: in vivo, Megalurothrips usitatus; conditions: thrips exposed to headspace above the solution
[3] = test system: Frankliniella occidentalis second-instar nymphs; assay: whole plant or invertebrate; conditions: 24 h, second-instar nymphs of F. occidentalis, 24 h after treatment
Experimental: Chemicals. […] These monoterpenes and the positive control spinosyn A (Bosite Technology, Chongqing, China) were dissolved in acetone (10 g/L).
Insects. F. occidentalis Thrips were provided by the Institute of Vegetables and Flowers, Chinese Academy of Agricultural Sciences (Beijing, China), and kept in a box (19 cm×14 cm×20 cm) at 27±1° C., humidity of 50%-60% and a photoperiod of 16:8 h (light:dark). The population was established with sword beans (Canavalia gladiata). Second-instar nymphs with the same growth were tested.
Insect Assays. […] The leaf blade (2 cm×3 cm) was immersed in the solution for 10 s in the test solution, and then air-dried until there were no water drops on the surface. The concentrations were the same as those used in the insecticide-impregnated membrane method. After the chemical film had been formed for 2 h, the infusion leaves were placed in the bottles. The second-instar nymphs were picked with a soft writing brush to make up ten insects per bottle. The bottles were sealed with plastic wrap. 1% Triton X-100 (m/V) aqueous solution as a blank control. Each treatment was repeated four times. The bottles were placed under temperature of 27±1° C., humidity of 50%-60% and photoperiod of 16:8 h (light:dark). […] The insects were touched with a soft brush and numbers of dead and living Thrips were recorded, followed by calculation of the mortality rates.

[4] = target: recombinant gamma-aminobutyric acid receptor-associated protein (rGABARAP) (Frankliniella occidentalis, UniProt A0A6J1T1Q2); assay: Microscale thermophoresis (MST) binding to rGABARAP; conditions: rGABARAP; read-out: Kd value, MST
Source text: Preparation of recombinant GABARAP (rGABARAP) protein. RNA was extracted from F. occidentalis and cDNA was then synthesized. GABARAP (GenBank accession No. LOC113211372) was obtained after PCR amplification (Stafford-Banks, et al. (2014) Plos One 9:e94447).
Interaction between ME and rGABARAP. A Nano Temper Monolith NT.115 MST system (Nano Temper, Munich, Germany) was used to assess the binding affinities between the target compounds and rGABARAP according to the published procedures (Zan, et al. (2020) Journal of Agricultural and Food Chemistry 68:6280-6285). Spinosyn A was used as a chemical positive control. Spinosyn A (≥1 nM) can trigger a change of the Cl^− current of insect neuron GABAAR, which is considered to be an insecticidal action mechanism of spinosyn A (Watson (2001) Pesticide Biochemistry and Physiology 71:20-28). Ovalbumin (OVA) (Sangon Biotech, Shanghai, China) is a control protein consisting of 385 amino acid residues. The interaction between OVA and ME was used as a protein control experiment (Huntington, et al. (1995) Protein Science 4:613-621).

Aedes aegypti (mosquito) = assay: Median knockdown concentration (KC50) test, mosquito; type: in vivo
Source text: as §1
Knockdown Activity of Monoterpenes.

[5] = test system: Megalurothrips usitatus (Bagrall) (thrips); assay: Median lethal concentration fumigation test, thrips; conditions: adult thrips, exposed one hour, mortality observed in 24 hours
Source text: Median Lethal Concentration Tests. […] The species tested included Thrips (M. usitatus), spider mite (T. cinnabarinus), melon fly (B. cucuribitae), cockroach (B. lateralis), housefly (M. domestica), mosquito (A. aegypti), parasitic wasp (T. chilonis) and fruit fly (Drosophila melanogaster). After being exposed to the test chemicals for one hour, adult Thrips, spider mites, and roaches were transferred to another flask. In addition to fresh water, adult Thrips, spider mites, and roaches were then respectively fed with cowpea, fresh blade of eggplant, and peanut oil via filter. […] Mortality of melon fly was observed after three hours of exposure.

recombinant gamma-aminobutyric acid receptor-associated protein (rGABARAP), sequence (A0A6J1T1Q2 1-118): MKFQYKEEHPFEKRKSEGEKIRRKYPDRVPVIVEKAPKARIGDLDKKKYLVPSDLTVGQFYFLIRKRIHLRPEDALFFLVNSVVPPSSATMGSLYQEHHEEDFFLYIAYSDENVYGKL

C=CC(C)(O)CCC=C(C)C (stereo not drawn) [Linalool, 3,7-dimethylocta-1,6-dien-3-o1]
LT50 (fiducial limits) [1]: 2.05 h | LT50 (fiducial limits) [2]: 35.1 h | LC50, fumigation toxicity (adult T. palmi): 5.5 µg/mL (≈ 35.7 µM) | fold more effective than dichlorvos (adult T. palmi): 15.2 fold | LC50 of linalool mixed in peanut oil (Thrips, M. usitatus): 4.7% | LC50 [3]: 7 µg/mL (≈ 45.4 µM) | pKd [4]: 4.91 | time within which the insects responded (Aedes aegypti (mosquito)): ≤ 20 min | KC50 (fiducial limits) (Aedes aegypti (mosquito); 20 Minutes): >243 µg/mL | KC50 (fiducial limits) (Aedes aegypti (mosquito); 30 Minutes): 69.0 µg/mL | LC50 (fiducial limits) [5]: 2.50 µg/mL (≈ 16.2 µM) | LC90 (fiducial limits) [5]: 6.4 µg/mL (≈ 41.5 µM)
